Experiments:
Assay type in all cases: in vivo
[1] = system: Echinochloa crus-galli (ECHCG); test: Herbicidal post-emergence action (Table B1); details: rated visually after about 3 weeks, 100% = plants have died, 0% = like control plants
How it was run: (§1)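 Weeds grown from seed in sandy loam in the greenhouse were sprayed at the one-leaf stage, 2 to 3 weeks after sowing, with WP or EC formulations in water plus 0.5% additive at 600 L/ha. Rates corresponded to 1280 or 320 g/ha; damage was rated visually versus untreated controls after about 3 weeks.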

Lolium rigidum (LOLRI) [2] = test: Herbicidal post-emergence action (Table B2); details: 1280 g/ha; rated visually after about 3 weeks; 100% = plants have died, 0% = like control plants
Protocol: (§2) Seeds of mono- and dicotyledonous weed plants were placed in plastic pots in sandy loam soil (doubly sown with in each case one species of mono- or dicotyledonous weed plants per pot), covered with soil and cultivated in a greenhouse under controlled growth conditions. 2 to 3 weeks after sowing, the test plants were treated at the one-leaf stage. The compounds of the invention, formulated in the form of wettable powders (WP) or as emulsion concentrates (EC), were applied onto the green parts of the plants as aqueous suspension or emulsion with addition of 0.5% additive at a water application rate of 600 liters per hectare (converted). After the test plants had been kept in the greenhouse under optimum growth conditions for about 3 weeks, the activity of the preparations was rated visually in comparison to untreated controls. For example, 100% activity=the plants have died, 0% activity=like control plants. Tables B1 to B12 below show the effects of selected compounds of the general formula (I) according to Table 1 on various harmful plants and an application rate corresponding to 1280 or 320 g/ha, which were obtained by the experimental procedure mentioned above.

Poa annua (POAAN) [3] = test: Herbicidal post-emergence action (Table B3); details: rated visually after about 3 weeks, 100% = plants have died, 0% = like control plants
How it was run: as §1

Setaria viridis (SETVI) [4] = test: Herbicidal post-emergence action (Table B4); details: 1280 g/ha; rated visually after about 3 weeks; 100% = plants have died, 0% = like control plants
Protocol: as §2

[5] = system: Abutilon theophrasti (ABUTH); test: Herbicidal post-emergence action (Table B5); details: rated visually after about 3 weeks, 100% = plants have died, 0% = like control plants
How it was run: as §1

[6] = system: Amaranthus retroflexus (AMARE); test: Herbicidal post-emergence action (Table B6); details: visual rating about 3 weeks after treatment, 100% = plants have died, 0% = like control plants
How it was run: as §1

Stellaria media (STEME) [7] = test: Herbicidal post-emergence action (Table B8); details: visual rating about 3 weeks after treatment, 100% = plants have died, 0% = like control plants
How it was run: as §1

[8] = system: Alopecurus myosuroides (ALOMY); test: Herbicidal post-emergence action (Table B9); details: rated visually after about 3 weeks, 100% = plants have died, 0% = like control plants
How it was run: as §1

[9] = system: Digitaria sanguinalis (DIGSA); test: Herbicidal post-emergence action (Table B10); details: visual rating about 3 weeks after treatment, 100% = plants have died, 0% = like control plants
How it was run: as §1

Bassia scoparia (KCHSC) [10] = test: Herbicidal post-emergence action (Table B11); details: visual rating about 3 weeks after treatment, 100% = plants have died, 0% = like control plants
How it was run: as §1

Veronica persica (VERPE) [11] = test: Herbicidal post-emergence action (Table B12); details: visual rating about 3 weeks after treatment, 100% = plants have died, 0% = like control plants
How it was run: as §1

[12] = system: Echinochloa crus-galli (ECHCG); test: Herbicidal pre-emergence action, test C (Table C1); details: dosage 1280 g/ha; visual scoring after about 3 weeks; 100% = plants have died, 0% = like control plants
How it was run: (§3)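 Sandy loam, doubly sown pots; surface spray pre-emergence; 1280 or 320 g/ha; 0.5% additive; 600 L/ha. Greenhouse, ~3 weeks. Visual % vs untreated.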

Lolium rigidum (LOLRI) [13] = test: Herbicidal pre-emergence action, test C (Table C2); details: dosage 1280 g/ha; visual scoring after about 3 weeks; 100% = plants have died, 0% = like control plants
How it was run: as §3

Poa annua (POAAN) [14] = test: Herbicidal pre-emergence action, test C (Table C3); details: visual scoring after about 3 weeks, 100% = plants have died, 0% = like control plants
How it was run: as §3

Setaria viridis (SETVI) [15] = test: Herbicidal pre-emergence action, test C (Table C4); details: visual scoring after about 3 weeks, 100% = plants have died, 0% = like control plants
How it was run: as §3

[16] = system: Abutilon theophrasti (ABUTH); test: Herbicidal pre-emergence action, test C (Table C5); details: visual scoring after about 3 weeks, 100% = plants have died, 0% = like control plants
How it was run: as §3

[17] = system: Amaranthus retroflexus (AMARE); test: Herbicidal pre-emergence action, test C (Table C6); details: visual scoring after about 3 weeks, 100% = plants have died, 0% = like control plants
How it was run: as §3

[18] = system: Matricaria inodora (MATIN); test: Herbicidal pre-emergence action, test C (Table C7); details: dosage 1280 g/ha; visual scoring after about 3 weeks; 100% = plants have died, 0% = like control plants
How it was run: as §3

Stellaria media (STEME) [19] = test: Herbicidal pre-emergence action, test C (Table C8); details: visual scoring after about 3 weeks, 100% = plants have died, 0% = like control plants
How it was run: as §3

[20] = system: Alopecurus myosuroides (ALOMY); test: Herbicidal pre-emergence action, test C (Table C9); details: dosage 1280 g/ha; visual scoring after about 3 weeks; 100% = plants have died, 0% = like control plants
How it was run: as §3

[21] = system: Digitaria sanguinalis (DIGSA); test: Herbicidal pre-emergence action, test C (Table C10); details: visual scoring after about 3 weeks, 100% = plants have died, 0% = like control plants
How it was run: as §3

Bassia scoparia (KCHSC) [22] = test: Herbicidal pre-emergence action, test C (Table C11); details: visual scoring vs untreated controls
How it was run: as §3

Veronica persica (VERPE) [23] = test: Herbicidal pre-emergence action, test C (Table C12); details: visual scoring vs untreated controls
How it was run: as §3

[24] = system: harmful plants ABUTH, AMARE, ECHCG, LOLRI, MATIN, POAAN, SETVI, STEME, ALOMY, DIGSA, KCHSC and VERPE; test: Herbicidal post-emergence action, summary of Tables B1-B12; details: application rate of 1280 or 320 g of active ingredient per hectare; summary in words
How it was run: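 Greenhouse weeds in sandy loam treated post-emergence at the one-leaf stage, 2–3 weeks after sowing, with WP or EC formulations sprayed with 0.5% additive at 600 L/ha water, 1280 or 320 g/ha. Damage rated visually after about 3 weeks versus untreated controls (0% = like control, 100% = dead).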

[25] = system: harmful plants ABUTH, AMARE, ECHCG, LOLRI, MATIN, POAAN, SETVI, STEME, ALOMY, DIGSA, KCHSC and VERPE; test: Herbicidal pre-emergence action (test C), summary of Tables C1-C12; details: application rate of 1280 or 320 g of active ingredient per hectare; summary in words
How it was run: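 Pre-emergence pot test in sandy loam: WP or EC formulations were sprayed onto the covering soil with 0.5% additive at 600 L/ha water, at 1280 or 320 g/ha. Plants were kept in the greenhouse, and activity was rated visually about 3 weeks later as % versus untreated controls (100% = dead).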

Fc1ccc(Oc2ncc(Cl)cc2F)c(-c2cc(C(F)F)on2)c1 [Example 1-31]
Post-emergence action against Echinochloa crus-galli (ECHCG) ([1]; 320 g/ha): 90%
Post-emergence action against Echinochloa crus-galli (ECHCG) ([1]; 1280 g/ha): 100%
Post-emergence action against Lolium rigidum (LOLRI) (Lolium rigidum (LOLRI) [2]): 90%
Post-emergence action against Poa annua (POAAN) (Poa annua (POAAN) [3]; 320 g/ha): 100%
Post-emergence action against Poa annua (POAAN) (Poa annua (POAAN) [3]; 1280 g/ha): 100%
Post-emergence action against Setaria viridis (SETVI) (Setaria viridis (SETVI) [4]): 100%
Post-emergence action against Abutilon theophrasti (ABUTH) ([5]; 320 g/ha): 90%
Post-emergence action against Abutilon theophrasti (ABUTH) ([5]; 1280 g/ha): 100%
Post-emergence action against Amaranthus retroflexus (AMARE) ([6]; dosage 320 g/ha): 100%
Post-emergence action against Amaranthus retroflexus (AMARE) ([6]; dosage 1280 g/ha): 100%
Post-emergence action against Stellaria media (STEME) (Stellaria media (STEME) [7]; dosage 320 g/ha): 100%
Post-emergence action against Stellaria media (STEME) (Stellaria media (STEME) [7]; dosage 1280 g/ha): 100%
Post-emergence action against Alopecurus myosuroides (ALOMY) ([8]; 320 g/ha): 100%
Post-emergence action against Alopecurus myosuroides (ALOMY) ([8]; 1280 g/ha): 100%
Post-emergence action against Digitaria sanguinalis (DIGSA) ([9]; dosage 320 g/ha): 90%
Post-emergence action against Digitaria sanguinalis (DIGSA) ([9]; dosage 1280 g/ha): 100%
Post-emergence action against Bassia scoparia (KCHSC) (Bassia scoparia (KCHSC) [10]; dosage 320 g/ha): 90%
Post-emergence action against Bassia scoparia (KCHSC) (Bassia scoparia (KCHSC) [10]; dosage 1280 g/ha): 100%
Post-emergence action against Veronica persica (VERPE) (Veronica persica (VERPE) [11]; dosage 320 g/ha): 100%
Post-emergence action against Veronica persica (VERPE) (Veronica persica (VERPE) [11]; dosage 1280 g/ha): 100%
Pre-emergence action against Echinochloa crus-galli (ECHCG) [12]: 100%
Pre-emergence action against Lolium rigidum (LOLRI) (Lolium rigidum (LOLRI) [13]): 100%
Pre-emergence action against Poa annua (POAAN) (Poa annua (POAAN) [14]; dosage 320 g/ha): 90%
Pre-emergence action against Poa annua (POAAN) (Poa annua (POAAN) [14]; dosage 1280 g/ha): 100%
Pre-emergence action against Setaria viridis (SETVI) (Setaria viridis (SETVI) [15]; dosage 320 g/ha): 100%
Pre-emergence action against Setaria viridis (SETVI) (Setaria viridis (SETVI) [15]; dosage 1280 g/ha): 100%
Pre-emergence action against Abutilon theophrasti (ABUTH) ([16]; dosage 320 g/ha): 90%
Pre-emergence action against Abutilon theophrasti (ABUTH) ([16]; dosage 1280 g/ha): 100%
Pre-emergence action against Amaranthus retroflexus (AMARE) ([17]; dosage 320 g/ha): 100%
Pre-emergence action against Amaranthus retroflexus (AMARE) ([17]; dosage 1280 g/ha): 100%
Pre-emergence action against Matricaria inodora (MATIN) [18]: 90%
Pre-emergence action against Stellaria media (STEME) (Stellaria media (STEME) [19]; dosage 320 g/ha): 100%
Pre-emergence action against Stellaria media (STEME) (Stellaria media (STEME) [19]; dosage 1280 g/ha): 100%
Pre-emergence action against Alopecurus myosuroides (ALOMY) [20]: 100%
Pre-emergence action against Digitaria sanguinalis (DIGSA) ([21]; dosage 320 g/ha): 90%
Pre-emergence action against Digitaria sanguinalis (DIGSA) ([21]; dosage 1280 g/ha): 100%
Pre-emergence action against Bassia scoparia (KCHSC) (Bassia scoparia (KCHSC) [22]; dosage 320 g/ha): 90%
Pre-emergence action against Bassia scoparia (KCHSC) (Bassia scoparia (KCHSC) [22]; dosage 1280 g/ha): 100%
Pre-emergence action against Veronica persica (VERPE) (Veronica persica (VERPE) [23]; dosage 320 g/ha): 100%
Pre-emergence action against Veronica persica (VERPE) (Veronica persica (VERPE) [23]; dosage 1280 g/ha): 100%
herbicidal activity against the harmful plants of Tables B1-B12 in post-emergence treatment [24]: very good herbicidal activity
herbicidal activity against the harmful plants of Tables C1-C12 in pre-emergence treatment [25]: very good herbicidal activity
